{
  "source": "patent US20050142065A1",
  "about": "“Screening method” (priority 2002, published 2005)",
  "key": {"[1]": {"test_system": "Diabetes mellitus patients", "test": "Hemoglobin A1c value in diabetes mellitus patients after oral administration", "format": "in vivo, human", "settings": "30 mg daily dose", "experimental": "Diabetes mellitus patients (134 patients, age 57.6±11.5 years old, fasting blood glucose level 183.2±35.2 mg/dl, hemoglobin A1c value 9.27±1.60%) were divided into 2 groups."}, "Wistar fatty rats": {"test_system": "Wistar fatty rats", "test": "Glycated hemoglobin value in Wistar fatty rats given the compound in powder diet", "format": "in vivo, rat", "settings": "for decrease in the glycated hemoglobin value, corrected for control group: minus decrease in control a group; for decrease in glycated hemoglobin value (before minus after administration): male Wistar fatty rats", "description": "In this Experimental Example, the blood of the rats were taken in a microtube finally containing 0.01M EDTA as an anticoagulant agent, for the measurement of blood glucose level and glycated hemoglobin value. The glycated hemoglobin value was measured by high performance liquid chromatograph (HLC-723GhbVA1c2.2 (product name, manufactured by Tosoh Corporation)) using an aminophenyl boronate affinity column and an absorbance (415 nm) detection method. For the mobile phase, eluents A, B (manufactured by Tosoh Corporation) were used, and the conditions set for chromatography, such as column temperature, flow rate and the like, followed the standard conditions set for this chromatography. […] The glycated hemoglobin value was measured at 4 and 5 weeks after the start of the experiment."}},
  "note": "Structures can show the parent of a compound that is named as a salt.",
  "data": [
    {"smiles": "CCc1ccc(CCOc2ccc(CC3SC(=O)NC3=O)cc2)nc1", "note": "(centres unmarked) [pioglitazone hydrochloride]", "values": [
      {"measurement": "decrease in the hemoglobin A1c value", "setting": "[1]; 8 weeks after start of administration", "result": 0.70, "unit": "%"},
      {"measurement": "decrease in hemoglobin A1c value, corrected for placebo group", "setting": "[1]; 8 weeks, minus decrease in placebo group", "result": 0.68, "unit": "%"},
      {"measurement": "decrease in the hemoglobin A1c value", "setting": "[1]; 12 weeks after start of administration", "result": 1.08, "unit": "%"},
      {"measurement": "decrease in the glycated hemoglobin value, corrected for control group", "setting": "Wistar fatty rats; b group, 0.8 mg/kg body weight daily in diet, 4 weeks", "result": 1.1, "unit": "%"},
      {"measurement": "decrease in the glycated hemoglobin value, corrected for control group", "setting": "Wistar fatty rats; b group, 0.8 mg/kg body weight daily in diet, 5 weeks", "result": 1.3, "unit": "%"},
      {"measurement": "decrease in glycated hemoglobin value (before minus after administration)", "setting": "Wistar fatty rats; b group, 0.8 mg/kg body weight daily in diet, 4 weeks after start of administration", "result": 1.4, "unit": "%"},
      {"measurement": "decrease in glycated hemoglobin value (before minus after administration)", "setting": "Wistar fatty rats; b group, 0.8 mg/kg body weight daily in diet, 5 weeks after start of administration", "result": 1.9, "unit": "%"},
      {"measurement": "decrease in the glycated hemoglobin value, corrected for control group", "setting": "Wistar fatty rats; c group, 2.4 mg/kg body weight daily in diet, 4 weeks", "result": 2.5, "unit": "%"},
      {"measurement": "decrease in the glycated hemoglobin value, corrected for control group", "setting": "Wistar fatty rats; c group, 2.4 mg/kg body weight daily in diet, 5 weeks", "result": 2.7, "unit": "%"},
      {"measurement": "decrease in glycated hemoglobin value (before minus after administration)", "setting": "Wistar fatty rats; c group, 2.4 mg/kg body weight daily in diet, 4 weeks after start of administration", "result": 2.8, "unit": "%"},
      {"measurement": "decrease in glycated hemoglobin value (before minus after administration)", "setting": "Wistar fatty rats; c group, 2.4 mg/kg body weight daily in diet, 5 weeks after start of administration", "result": 3.3, "unit": "%"}
    ]}
  ]
}
